According to PubChem BioAssay (NCI):
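These data come from cells grown in 96-well plates and exposed to compound for 48 hours at five concentrations. The concentration for 50% growth inhibition is given as GI50. At the TGI there is no net growth.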

Tested on: MOLT-4 leukemia
Assay: DTP human tumour cell line panel, 48 h

Q: What does the source list for COc1ccc(-c2nn(-c3cccc(Cl)c3)cc2-c2nc(N)[nH]c(=O)c2C#N)cc1?
A: GI50: 4.8 µM; TGI: 39.8 µM

Q: With COC(=O)C(=O)CC(=O)c1cccc(OC)c1 as the compound, how does the TGI read?
A: Its TGI is greater than 100 µM.

Q: For COc1cc2c3c(n(CCCN(CCO)CCO)c(=O)c2cc1OC)-c1cc2c(cc1C3=O)OCO2, which GI50 is on record?
A: Its GI50 is less than 0.01 µM.

Q: And the TGI?
A: The TGI was less than 0.01 µM.

Q: CNCCn1c(=O)c2cc(OC)c(OC)cc2c2cnc3cc4c(cc3c21)OCO4 was tested. Which GI50 did it give?
A: Its GI50 is less than 0.01 µM.

Q: What about the TGI of the same compound?
A: Its TGI is 0.0303 µM.

Q: What does the source list for O=C(CCN1CCOCC1)Nc1cccc(-n2cc(-c3ccncc3)c(-c3ccc(Cl)c(O)c3)n2)c1?
A: GI50: 2.65 µM; TGI: 11.9 µM

Q: How did the GI50 turn out when C=C(C)[C@@H]1CC[C@]2(C)[C@H](CC[C@@H]3[C@@H]([C@@](C)(O)CCC=C(C)C)CC[C@]32C)[C@@]1(C)CCC(=O)O was run?
A: The GI50 was 15.4 µM.

Q: And the TGI?
A: The TGI was 52.7 µM.

Q: How did the GI50 turn out when Cn1cc(S(=O)(=O)N2CCC3=Cc4c(cnn4-c4ccc(F)cc4)C[C@]3(C(=O)c3cc(C(F)(F)F)ccn3)C2)cn1 was run?
A: Its GI50 is greater than 100 µM.

Q: And the TGI?
A: The TGI was greater than 100 µM.

Q: For c1ccc(NCCSc2nc3ccccc3s2)cc1, which TGI is on record?
A: The TGI was 82.4 µM.

Q: What does the source list for Oc1ccc(Oc2cnc3ccccc3n2)cc1?
A: GI50: 41.4 µM; TGI: > 100 µM

Q: How did the TGI turn out when CC(=O)NC1CONC1=O (centres undefined) was run?
A: The TGI was greater than 100 µM.

Q: For Oc1ccc(N=Nc2nccs2)c(O)c1, which GI50 is on record?
A: The GI50 was 3.1 µM.

Q: And the TGI?
A: The TGI was 20.3 µM.

Q: Which results are given for COc1ccc2c(c1)C(C)Cc1c(ncnc1-n1cnc3ccccc31)N2C (centres undefined)?
A: GI50: 0.479 µM; TGI: 21.2 µM

Q: What does the source list for COc1ccc(-c2noc(N)c2-c2cc(OC)c3c(c2)OCO3)cc1?
A: GI50: 1.98 µM; TGI: > 64.1 µM

Q: How did the TGI turn out when CC(Cl)CN1c2ccccc2Sc2ccc(Cl)cc21 (centres undefined) was run?
A: The TGI was greater than 10 µM.

Q: NCCCn1c2c(c3ccccc3c1=O)C(=O)c1ccccc1-2 was tested. Which GI50 did it give?
A: The GI50 was 0.0363 µM.

Q: What about the TGI of the same compound?
A: Its TGI is 0.7 µM.

Q: What does the source list for O=C1c2ccccc2C(=O)c2c(NCCN=Cc3ccccc3O)cccc21?
A: GI50: 3.33 µM; TGI: > 30.5 µM

Q: Oc1ccc(/C=C/c2cc(O)cc3c2C(c2cc(O)cc(O)c2)C(c2ccc(O)c(O)c2)O3)cc1 (centres undefined) was tested. Which TGI did it give?
A: The TGI was 33.5 µM.

Q: What does the source list for CC1(C)N=C(N)N=C(N)N1c1cccc(OCCOc2cccc([N+](=O)[O-])c2)c1?
A: GI50: 2.45 µM; TGI: > 100 µM

Q: Which results are given for O=C(NC1CCCCC1)c1ccc(Nc2ncnc3c2cnn3-c2ccccc2)cc1?
A: GI50: 75.6 µM; TGI: > 100 µM

Q: How did the GI50 turn out when N#CC(C#N)=C1CCCOc2c1ccc1ccccc21 was run?
A: Its GI50 is 19.5 µM.

Q: And the TGI?
A: Its TGI is 51 µM.

Q: Which TGI does the source give for CCc1nc(Cl)c(Cl)c(Cl)n1 here?
A: The TGI was greater than 100 µM.

Q: With O=[N+]([O-])c1ccc(Sc2c3ccccc3nc3ccccc23)cn1 as the compound, how does the TGI read?
A: Its TGI is 6.62 µM.

Q: For COc1cc2c3c(n(CCCN(C)CCO)c(=O)c2cc1OC)-c1cc2c(cc1C3=O)OCO2, which GI50 is on record?
A: Its GI50 is less than 0.013 µM.

Q: How did the GI50 turn out when C=CCn1c(SCC(=O)Nc2ccc(C(=O)/C=C/c3cc(OC)c(OC)c(OC)c3)cc2)nnc1-c1ccc(OC)cc1 was run?
A: The GI50 was 0.378 µM.

Q: And the TGI?
A: Its TGI is greater than 100 µM.

Q: Which TGI does the source give for N#Cc1c(-c2ccco2)cc(-c2ccc(N)cc2)[nH]c1=O here?
A: The TGI was greater than 100 µM.

Q: What does the source list for C=C1C(O)C2C(=C(C)C13CC3)C(=O)C(C)(C)C2OC (centres undefined)?
A: GI50: 38.6 µM; TGI: > 100 µM

Q: Which results are given for COc1ccc(-c2ccc(NNC(=O)c3ccc(F)cc3)nn2)cc1OC?
A: GI50: 40.6 µM; TGI: > 100 µM

Q: How did the TGI turn out when C=C1C(=O)OC2C1CC(OC(C)=O)/C(C)=C/CCC1(C)OC21 (centres undefined) was run?
A: The TGI was greater than 100 µM.

Q: How did the GI50 turn out when CC(=O)[CH-]C(=O)c1ccccc1.CC(=O)[CH-]C(=O)c1ccccc1.O=S(=O)([O-])c1cc([O-])c2c([O-])cc(S(=O)(=O)[O-])cc2c1.[Na+].[Ti+4] was run?
A: Its GI50 is 34.3 µM.

Q: What about the TGI of the same compound?
A: The TGI was greater than 100 µM.

Q: What does the source list for Cc1cc(NCCCCNc2ccnc3cc(Cl)ccc23)nc(Nc2ccc(C(=O)N3CCCCC3)cc2)n1?
A: GI50: 1.71 µM; TGI: 7.13 µM

Q: With Cc1c2c(C(N)=O)nccc2c(C)c2c1c1ccccc1n2Cc1ccccc1 as the compound, how does the TGI read?
A: Its TGI is 62.9 µM.

Tested on: CAKI-1 renal
Assay: DTP human tumour cell line panel, 48 h

Q: What does the source list for COc1ccc(-c2nn(-c3cccc(Cl)c3)cc2-c2nc(N)[nH]c(=O)c2C#N)cc1?
A: GI50: 2.52 µM; TGI: 15.3 µM

Q: With COC(=O)C(=O)CC(=O)c1cccc(OC)c1 as the compound, how does the TGI read?
A: The TGI was greater than 100 µM.
